Eight compounds from publication PMC6691788, “Design and synthesis of phthalazine-based compounds as potent anticancer agents with potential antiangiogenic activity via VEGFR-2 inhibition” (Journal of Enzyme Inhibition and Medicinal Chemistry, 2019) can be followed below.

Usually GI50 stands for the concentration at which growth is held to half of that of the control. High values mean less potent growth inhibition, low ones more potent growth inhibition.

Experiment in all cases: NCI 60 cell panel SRB screen
What all share (type): cell-based

One assay concerns A549/ATCC. The conditions noted are these: Homo sapiens; for activity at 10 µM: single dose 10 μM, read-out: percent cell growth promotion.
A further assay has as its system SF-295. The conditions noted are these: Homo sapiens; for activity at 10 µM: SF-295, single dose 10 μM, read-out: percent cell growth promotion.
The subject of the next assay is MALME-3M. The conditions noted are these: Homo sapiens; for activity at 10 µM: read-out: percent cell growth promotion.
For a further assay, the system named is M14. The conditions noted are these: Homo sapiens; for activity at 10 µM: M14, read-out: percent cell growth promotion.
The subject of another assay is SK-MEL-5. The conditions noted are these: Homo sapiens; for activity at 10 µM: SK-MEL-5, read-out: percent cell growth promotion.
For the next assay, the system named is OVCAR-3. The conditions noted are these: Homo sapiens; for activity at 10 µM: OVCAR-3, single dose 10 μM, read-out: percent cell growth promotion.
The subject of the next assay is PC-3. The conditions noted are these: Homo sapiens; for activity at 10 µM: PC-3, single dose 10 μM, read-out: percent cell growth promotion.
Another assay deals with MDA-MB-468. The conditions noted are these: Homo sapiens; for activity at 10 µM: MDA-MB-468, MDA-MBA-468, single dose 10 μM, read-out: percent cell growth promotion. As for the experimental part:
The human tumor cell lines of the cancer-screening panel were grown in RPMI 1640 medium containing 5% fetal bovine serum and […] L-glutamine. For a typical screening experiment, cells are inoculated into 96 well microtiter plates in 100 ml at plating densities ranging from 5000 to 40,000 cells/well depending on the doubling time of individual cell lines. After cell inoculation, the microtiter plates are incubated at 37 °C, 5% CO2, 95% air and 100%
relative humidity for 24 h prior to addition of experimental drugs. After 24 h, two plates of each cell line are fixed in situ with TCA, to represent a measurement of the cell population for each cell line at the time of drug addition (Tz). Experimental drugs are dissolved in dimethyl sulfoxide at 400-fold the desired final maximum test concentration and stored frozen prior to use. At the time of drug addition, an aliquot of frozen concentrate is thawed and diluted to twice the desired final maximum test concentration with complete medium containing […] Gentamicin. Additional four, 10-fold or ½log serial dilutions are made to provide a total of five drug concentrations plus control. Aliquots of […] of these different drug dilutions are added to the appropriate microtiter wells already containing 100 ml of medium, resulting in the required final drug concentrations. Following drug addition, the plates are incubated for an additional 48 h at 37 °C, 5% CO2, 95% air, and 100% relative humidity. For adherent cells, the assay is terminated by the addition of cold TCA. Cells are fixed in situ by the gentle addition of […] of cold 50% (w/v) TCA (final concentration,10% TCA) and incubated for 60 min at 4 °C. The supernatant is discarded, and the plates are washed five times with tap water and air dried. Sulforhodamine B (SRB) solution (100 ml) at 0.4% (w/v) in 1% acetic acid is added to each well, and plates are incubated for 10 min at room temperature. After staining, unbound dye is removed by washing five times with 1% acetic acid and the plates are air dried. Bound stain is subsequently dissolved with 10 μM trizma base, and the absorbance is read on an automated plate reader at a wavelength of 515 nm. For suspension cells, the methodology is the same except that the assay is terminated by fixing settled cells at the bottom of the wells by gently adding […] of 80% TCA (final concentration, 16% TCA).
Using the seven absorbance measurements [time zero, (Tz), control growth, (C), and test growth in the presence of drug at the five concentration levels (Ti)], the percentage growth is calculated at each of the drug concentrations levels. Percentage growth inhibition is calculated as: [(Ti -Tz)/(C - Tz)] x 100 for concentrations for which Ti>/ ¼ Tz and [(Ti -Tz) / Tz] x100 for concentrations for which Ti <Tz.
Three dose response parameters are calculated for each experimental agent. Growth inhibition of 50% (GI50) is calculated from [(Ti -Tz)/(C - Tz)] x 100 =50, which is the drug concentration resulting in a 50% reduction in the net protein increase (as measured by SRB staining) in control cells during the drug incubation. The drug concentration resulting in total growth inhibition (TGI) is calculated from Ti ¼ Tz. The LC50 (concentration of drug resulting in a 50% reduction in the measured protein at the end of the drug treatment as compared to that at the beginning) indicating a net loss of cells following treatment is calculated from [(Ti - Tz) / Tz] x100 = -50. Values are calculated for each of these three parameters if the level of activity is reached; however, if the effect is not reached or is exceeded, the value for that parameter is expressed as greater or less than the maximum or minimum concentration tested.

The structures appear in SMILES notation.

As for `CCOC(=O)N1CCN(c2nncc3ccccc23)CC1` [Compound 8a, Ethyl 4-(phthalazin-1-yl)piperazine-1-carboxylate], the activity at 10 µM came out at 99.6% with A549/ATCC; 102% with SF-295; 109% with MALME-3M (Malme-3M); 110% with M14; 103% in the assay with SK-MEL-5; 105% with OVCAR-3. Further, the activity at 10 µM with PC-3 worked out at 92.6%; in the assay with MDA-MB-468 it was 97.7%.
For `c1ccc(N2CCN(c3nncc4ccccc34)CC2)nc1` [Compound 8d, 1–(4-(Pyridin-2-yl)piperazin-1-yl)phthalazine], the activity at 10 µM stood at 100% in the assay with A549/ATCC; 107% in the assay with SF-295; 109% in the assay on MALME-3M (Malme-3M); 102% in the assay on M14; 97.5% in the assay on SK-MEL-5; 99.9% in the assay with OVCAR-3. Further, the activity at 10 µM with PC-3 was 101%; in the assay on MDA-MB-468, 93.3%.
As for `CCOC(=O)N1CCN(c2nnc(C)c3ccccc23)CC1` [Compound 8f, Ethyl 4–(4-methylphthalazin-1-yl)piperazine-1-carboxylate], the activity at 10 µM in the assay with A549/ATCC came out at 94.1%; with SF-295 it was 94.2%; with MALME-3M (Malme-3M), 102%; in the assay with M14, 104%; in the assay with SK-MEL-5, 97.5%; in the assay with OVCAR-3, 112%. In addition, the activity at 10 µM in the assay with PC-3 was 101%; with MDA-MB-468, 104%.
As to `Cc1nnc(N2CCN(c3ccccc3)CC2)c2ccccc12` [Compound 8g, 1-Methyl-4–(4-phenylpiperazin-1-yl)phthalazine], the activity at 10 µM with A549/ATCC turned out to be 99.3%; with SF-295, 96%; in the assay with MALME-3M (Malme-3M) it was 114%; with M14, 94.8%; in the assay on SK-MEL-5, 98.1%; in the assay with OVCAR-3, 108%. In addition, the values for the activity at 10 µM in the assay on PC-3 and with MDA-MB-468 were 99.4% and 98.8%, respectively.
Turning to `Cc1nnc(N2CCN(c3ccccc3F)CC2)c2ccccc12` [Compound 8h, 1–(4-(2-Fluorophenyl)piperazin-1-yl)-4-methylphthalazine], the activity at 10 µM in the assay on A549/ATCC came to 89%; in the assay on SF-295, 92.7%; in the assay on MALME-3M (Malme-3M), 103%; in the assay on M14 it was 95%; in the assay with SK-MEL-5, 92.9%; with OVCAR-3 it was 110%. The activity at 10 µM came out at 99% in the assay with PC-3 and 84.8% with MDA-MB-468.
With `Cc1nnc(N2CCN(c3ccccn3)CC2)c2ccccc12` [Compound 8i, 1-Methyl-4–(4-(pyridin-2-yl)piperazin-1-yl)phthalazine], the activity at 10 µM with A549/ATCC was found to be 92.3%; in the assay on SF-295, 87.8%; with MALME-3M (Malme-3M) it was 107%; in the assay on M14, 98.6%; in the assay with SK-MEL-5 it was 97%; in the assay with OVCAR-3, 114%. In addition, the activity at 10 µM in the assay with PC-3 was determined as 100%; in the assay on MDA-MB-468, 87.4%.
As to `O=C(Nc1ccccc1)Nc1ccc(Oc2nnc(Cl)c3ccccc23)cc1` [Compound 13a, 1–(4-(4-Chlorophthalazin-1-yloxy)phenyl)-3-phenylurea], the GI50 is 3.47 µM in the assay with A549/ATCC (5 log dose); 2.07 µM in the assay with SF-295 (SF-295, 5 log dose); 1.62 µM with MALME-3M (Malme-3M); 6.15 µM in the assay with M14 (M14); 4.56 µM with SK-MEL-5 (SK-MEL-5); 2.64 µM with OVCAR-3 (OVCAR-3, 5 log dose). In addition, the GI50 in the assay on PC-3 (PC-3, 5 log dose) came out at 3.26 µM; with MDA-MB-468 (MDA-MB-468, 5 log dose), 7.58 µM. Further, the IC (TGI) in the assay with A549/ATCC (5 log dose) is 18.4 µM; in the assay with SF-295 (SF-295, 5 log dose), 5.63 µM; with MALME-3M (Malme-3M, read-out: TGI) it was 5.93 µM; with M14 (M14, read-out: TGI) it was greater than 25 µM; in the assay with SK-MEL-5 (SK-MEL-5, read-out: TGI) it was 18.6 µM; with OVCAR-3 (OVCAR-3, 5 log dose) it was 5.97 µM. The IC (TGI) in the assay with PC-3 (PC-3, 5 log dose) was 10.6 µM; in the assay on MDA-MB-468 (MDA-MB-468, 5 log dose), 7.56 µM. For the same compound, in the assay on A549/ATCC (5 log dose, 48 h), the LC50 (concentration killing 50% of cells) was greater than 25 µM. For the same compound, the activity at 10 µM with A549/ATCC was 11.2%; with SF-295, 31.2%; in the assay on MALME-3M (Malme-3M), -29.6%; with M14, 46.2%; in the assay on SK-MEL-5, 32.9%; with OVCAR-3, 25.4%. Besides, the activity at 10 µM in the assay on PC-3 worked out at 25.9%; in the assay with MDA-MB-468, 0.47%. Also, the CC50 in the assay with SF-295 (SF-295, 5 log dose, 48 h, read-out: LC50 (the source's name)) was 13.5 µM; in the assay with MALME-3M (MALME-3M, 5 log dose, 48 h, read-out: LC50 (the source's name)) it was 16 µM; in the assay on M14 (M14, 5 log dose, 48 h, read-out: LC50 (the source's name)) it was greater than 25 µM; in the assay on SK-MEL-5 (SK-MEL-5, 5 log dose, 48 h, read-out: LC50 (the source's name)), greater than 25 µM; in the assay on OVCAR-3 (OVCAR-3, 5 log dose, 48 h, read-out: LC50 (the source's name)), 13.5 µM; with PC-3 (PC-3, 5 log dose, 48 h, read-out: LC50 (the source's name)) it was greater than 25 µM. Moreover, the CC50 in the assay with MDA-MB-468 (MDA-MB-468, 5 log dose, 48 h, read-out: LC50 (the source's name)) is greater than 25 µM.
Regarding `O=C(Nc1ccc(Cl)cc1)Nc1ccc(Oc2nnc(Cl)c3ccccc23)cc1` [Compound 13b, 1–(4-Chlorophenyl)-3–(4-(4-chlorophthalazin-1-yloxy)phenyl)urea], the activity at 10 µM with A549/ATCC came out at 78.2%; in the assay on SF-295, 91.6%; in the assay on MALME-3M (Malme-3M), 92.3%; in the assay on M14, 103%; in the assay with SK-MEL-5 it was 95.5%; in the assay on OVCAR-3, 85.4%. Further, the activity at 10 µM in the assay on PC-3 came to 67.8%; in the assay with MDA-MB-468 it was 84.9%.
